According to US10294202B2, “Pyrrolidinones as herbicides” (FMC Corporation, priority 2013, dated 2019):

Tests used:
[1] = tested on: pigweed; experiment: Test A pre-/postemergence herbicide test; format: in vivo, Amaranthus retroflexus
Outline: (§1)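 Visual injury ratings, 0 = no effect, 100 = complete control, taken ~10 days after treatment against untreated greenhouse controls. Preemergence: directed soil spray onto seeded loam/sand pots. Postemergence: spray onto plants at one- to two-leaf stage, 2–10 cm tall.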

[2] = tested on: nutsedge, yellow; experiment: Test C pre-/postemergence herbicide test; format: in vivo, Cyperus esculentus
Outline: (§2)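 Pre- and postemergence greenhouse screen. Preemergence treatment went onto freshly planted seeds in loam–sand soil; postemergence treatment went onto plants 2 to 18 cm tall at the 1- to 4-leaf stage in sphagnum peat/vermiculite medium. Scoring at 13 to 15 days used a 0–100 control scale.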

[3] = tested on: blackgrass; experiment: Test C pre-/postemergence herbicide test; format: in vivo, Alopecurus myosuroides
Outline: as §2

[4] = tested on: barnyardgrass; experiment: Test C pre-/postemergence herbicide test; format: in vivo, Echinochloa crus-galli
Outline: as §2

[5] = tested on: ryegrass, Italian; experiment: Test C pre-/postemergence herbicide test; format: in vivo, Lolium multiflorum
Outline: as §2

[6] = tested on: wheat; experiment: Test A pre-/postemergence herbicide test; format: in vivo, Triticum aestivum; conditions: Postemergence
Outline: as §1

[7] = tested on: velvetleaf; experiment: Test C pre-/postemergence herbicide test; format: in vivo, Abutilon theophrasti
Outline: as §2

[8] = tested on: morningglory; experiment: Test C pre-/postemergence herbicide test; format: in vivo, Ipomoea coccinea
Outline: as §2

[9] = tested on: galium; experiment: Test C pre-/postemergence herbicide test; format: in vivo, Galium aparine
Outline: as §2

[10] = tested on: corn; experiment: Test C pre-/postemergence herbicide test; format: in vivo, Zea mays
Outline: as §2

[11] = Postemergence, 125 g ai/ha, visual rating on 0 to 100 scale (0 no effect, 100 complete control), approx. 10 days
[12] = Preemergence, 125 g ai/ha, 0 to 100 scale where 0 is no effect and 100 is complete control
[13] = Preemergence, 500 g ai/ha, visual rating on 0 to 100 scale (0 no effect, 100 complete control)
[14] = Postemergence, 31 g ai/ha, scale 0 to 100 (0 no effect, 100 complete control)
[15] = Postemergence, 62 g ai/ha, scale 0 (no effect) to 100 (complete control)
[16] = Postemergence, 125 g ai/ha, scale 0 to 100 (0 no effect, 100 complete control)
[17] = Postemergence, 250 g ai/ha, scale 0 to 100 (0 no effect, 100 complete control)
[18] = Preemergence, 31 g ai/ha, scale 0 to 100, 0 is no effect and 100 is complete control
[19] = Preemergence, 62 g ai/ha, scale 0 to 100 (0 no effect, 100 complete control)
[20] = Preemergence, 125 g ai/ha, scale 0 to 100
[21] = Preemergence, 125 g ai/ha, scale 0 to 100 (0 no effect, 100 complete control)
[22] = 125 g ai/ha, visual rating on 0 to 100 scale (0 no effect, 100 complete control), approx. 10 days
[23] = Preemergence, 31 g ai/ha, scale 0 to 100

O=C1NCC(c2cccc(OC(F)F)c2)C1C(=O)Nc1ccccc1F (stereo not shown) [Compound 323]
45: Plant response rating, Blackgrass [3, 20]
30: Plant response rating, Pigweed ([1]; Postemergence, 500 g ai/ha, 0 to 100 scale (0 no effect, 100 complete control)) | Pigweed plant response rating [1, 13] | Plant response rating (scale of 0 to 100), Morningglory ([8]; Preemergence, 250 g ai/ha)
80: Barnyardgrass plant response rating [4, 18] | Plant response rating, Wheat ([6]; 500 g ai/ha, 0 to 100 scale (0 no effect, 100 complete control))
75: Plant response rating (scale of 0 to 100), Nutsedge, Yellow ([2]; Preemergence, 250 g ai/ha) | Plant response rating (scale of 0 to 100), Corn ([10]; Preemergence, 250 g ai/ha)
85: Plant response rating (scale of 0 to 100), Blackgrass ([3]; Preemergence, 250 g ai/ha) | Barnyardgrass plant response rating [4, 19] | Plant response rating, Galium [9, 20] | Plant response rating (scale of 0 to 100), Galium ([9]; Preemergence, 250 g ai/ha)
5: Plant response rating, Ryegrass, Italian [5, 17] | Plant response rating, Morningglory [8, 16] | Plant response rating, Corn [10, 16]
98: Plant response rating, Barnyardgrass [4, 21] | Plant response rating (scale of 0 to 100; 0 is no effect, 100 is complete control), Barnyardgrass ([4]; Preemergence, 250 g ai/ha)
10: Plant response rating, Barnyardgrass [4, 15] | Ryegrass, Italian plant response rating [5, 19] | Plant response rating, Corn [10, 17] | Plant response rating, Corn [10, 20]
25: Nutsedge, Yellow plant response rating [2, 19] | Plant response rating, Nutsedge, Yellow [2, 20] | Plant response rating, Morningglory [8, 15] | Plant response rating, Morningglory [8, 17]
0: Plant response rating, Nutsedge, Yellow [2, 14] | Plant response rating, Nutsedge, Yellow [2, 15] | Plant response rating, Nutsedge, Yellow [2, 16] | Plant response rating, Nutsedge, Yellow [2, 17] | Plant response rating, Blackgrass [3, 14] | Plant response rating, Blackgrass [3, 15] | Plant response rating, Blackgrass [3, 16] | Blackgrass plant response rating [3, 18] | Blackgrass plant response rating [3, 19] | Plant response rating, Barnyardgrass [4, 14] | Plant response rating, Ryegrass, Italian [5, 14] | Plant response rating, Ryegrass, Italian [5, 15] | Plant response rating, Ryegrass, Italian [5, 16] | Plant response rating, Ryegrass, Italian [5, 20] | Plant response rating, Velvetleaf [7, 14] | Plant response rating, Velvetleaf [7, 16] | Plant response rating, Velvetleaf [7, 17] | Plant response rating, Morningglory [8, 14] | Morningglory plant response rating [8, 18] | Morningglory plant response rating [8, 19] | Plant response rating, Morningglory [8, 20] | Galium plant response rating [9, 18] | Galium plant response rating [9, 19] | Plant response rating, Corn [10, 14] | Plant response rating, Corn [10, 15] | Corn plant response rating [10, 18] | Corn plant response rating [10, 19]
35: Plant response rating, Barnyardgrass [4, 16]
70: Plant response rating, Barnyardgrass [4, 17]
40: Plant response rating, Wheat [6, 22] | Plant response rating, Velvetleaf [7, 20]
20: Plant response rating, Pigweed [1, 11] | Plant response rating, Pigweed [1, 12] | Nutsedge, Yellow plant response rating [2, 18] | Plant response rating, Velvetleaf [7, 15]
15: Plant response rating, Blackgrass [3, 17] | Velvetleaf plant response rating [7, 19]

O=C1NCC(c2cccc(C(F)(F)F)c2)C1C(=O)Nc1ccc(F)c(F)c1F (stereo not shown) [Compound 345]
65: Plant response rating, Corn [10, 20]
0: Plant response rating, Pigweed [1, 12] | Nutsedge, Yellow plant response rating [2, 18] | Nutsedge, Yellow plant response rating [2, 19] | Plant response rating, Nutsedge, Yellow [2, 20] | Plant response rating (scale of 0 to 100), Nutsedge, Yellow ([2]; Preemergence, 250 g ai/ha) | Velvetleaf plant response rating [7, 19] | Morningglory plant response rating [8, 19] | Plant response rating, Morningglory [8, 20]
95: Barnyardgrass plant response rating [4, 19] | Plant response rating, Barnyardgrass [4, 21] | Plant response rating (scale of 0 to 100; 0 is no effect, 100 is complete control), Barnyardgrass ([4]; Preemergence, 250 g ai/ha)
90: Plant response rating, Blackgrass [3, 20] | Plant response rating (scale of 0 to 100), Blackgrass ([3]; Preemergence, 250 g ai/ha) | Galium plant response rating [9, 19] | Plant response rating, Galium [9, 20]
10: Plant response rating, Ryegrass, Italian [5, 20]
50: Blackgrass plant response rating [3, 18] | Blackgrass plant response rating [3, 19] | Plant response rating, Wheat [6, 22]
80: Barnyardgrass plant response rating [4, 18]
85: Plant response rating (scale of 0 to 100), Galium ([9]; Preemergence, 250 g ai/ha) | Plant response rating (scale of 0 to 100), Corn ([10]; Preemergence, 250 g ai/ha)
70: Pigweed plant response rating [1, 13]
45: Ryegrass, Italian plant response rating [5, 19]
20: Plant response rating, Pigweed [1, 11] | Galium plant response rating [9, 18]
35: Plant response rating (scale of 0 to 100), Morningglory ([8]; Preemergence, 250 g ai/ha) | Corn plant response rating [10, 19]
40: Corn plant response rating [10, 18]
25: Plant response rating, Velvetleaf [7, 20] | Morningglory plant response rating [8, 18]

O=C1NCC(c2ccc(F)c(F)c2)C1C(=O)Nc1ccc(F)c(F)c1F (stereo not shown) [Compound 346]
15: Plant response rating, Morningglory [8, 16]
20: Plant response rating, Pigweed [1, 12] | Plant response rating, Blackgrass [3, 23] | Plant response rating, Velvetleaf [7, 17] | Galium plant response rating [9, 19]
90: Plant response rating, Galium [9, 20] | Plant response rating (scale of 0 to 100), Galium ([9]; Preemergence, 250 g ai/ha)
60: Blackgrass plant response rating [3, 19] | Plant response rating, Barnyardgrass [4, 17]
70: Barnyardgrass plant response rating [4, 19] | Plant response rating, Galium [9, 17]
50: Plant response rating, Barnyardgrass [4, 23]
10: Ryegrass, Italian plant response rating [5, 19] | Plant response rating, Velvetleaf [7, 20] | Plant response rating, Galium [9, 23]
40: Plant response rating, Galium [9, 16]
98: Plant response rating (scale of 0 to 100; 0 is no effect, 100 is complete control), Barnyardgrass ([4]; Preemergence, 250 g ai/ha)
75: Plant response rating, Blackgrass [3, 20]
85: Plant response rating (scale of 0 to 100), Blackgrass ([3]; Preemergence, 250 g ai/ha)
30: Pigweed plant response rating [1, 13] | Plant response rating, Barnyardgrass [4, 16] | Plant response rating, Morningglory [8, 20] | Plant response rating, Galium [9, 14]
0: Plant response rating, Pigweed [1, 11] | Plant response rating, Nutsedge, Yellow [2, 14] | Plant response rating, Nutsedge, Yellow [2, 15] | Plant response rating, Nutsedge, Yellow [2, 16] | Nutsedge, Yellow plant response rating [2, 19] | Plant response rating, Nutsedge, Yellow [2, 20] | Plant response rating (scale of 0 to 100), Nutsedge, Yellow ([2]; Preemergence, 250 g ai/ha) | Plant response rating, Nutsedge, Yellow [2, 23] | Plant response rating, Blackgrass [3, 14] | Plant response rating, Blackgrass [3, 15] | Plant response rating, Blackgrass [3, 16] | Plant response rating, Barnyardgrass [4, 14] | Plant response rating, Barnyardgrass [4, 15] | Plant response rating, Ryegrass, Italian [5, 14] | Plant response rating, Ryegrass, Italian [5, 15] | Plant response rating, Ryegrass, Italian [5, 16] | Plant response rating, Ryegrass, Italian [5, 17] | Plant response rating, Ryegrass, Italian [5, 23] | Plant response rating, Wheat [6, 22] | Plant response rating, Velvetleaf [7, 14] | Plant response rating, Velvetleaf [7, 15] | Velvetleaf plant response rating [7, 19] | Plant response rating, Velvetleaf [7, 23] | Plant response rating, Morningglory [8, 14] | Morningglory plant response rating [8, 19] | Plant response rating (scale of 0 to 100), Morningglory ([8]; Preemergence, 250 g ai/ha) | Plant response rating, Morningglory [8, 23] | Plant response rating, Corn [10, 14] | Plant response rating, Corn [10, 15] | Plant response rating, Corn [10, 16] | Plant response rating, Corn [10, 17] | Corn plant response rating [10, 19] | Plant response rating, Corn [10, 20] | Plant response rating, Corn [10, 23]
25: Plant response rating, Galium [9, 15]
95: Plant response rating, Barnyardgrass [4, 21]
5: Plant response rating, Nutsedge, Yellow [2, 17] | Plant response rating, Blackgrass [3, 17] | Plant response rating, Ryegrass, Italian [5, 20] | Plant response rating, Velvetleaf [7, 16] | Plant response rating, Morningglory [8, 15] | Plant response rating, Morningglory [8, 17] | Plant response rating (scale of 0 to 100), Corn ([10]; Preemergence, 250 g ai/ha)
